In assay [1] the target is T1, Alpha-1A adrenergic receptor (Homo sapiens, UniProt P35348).
T1 sequence (P35348 whole entry): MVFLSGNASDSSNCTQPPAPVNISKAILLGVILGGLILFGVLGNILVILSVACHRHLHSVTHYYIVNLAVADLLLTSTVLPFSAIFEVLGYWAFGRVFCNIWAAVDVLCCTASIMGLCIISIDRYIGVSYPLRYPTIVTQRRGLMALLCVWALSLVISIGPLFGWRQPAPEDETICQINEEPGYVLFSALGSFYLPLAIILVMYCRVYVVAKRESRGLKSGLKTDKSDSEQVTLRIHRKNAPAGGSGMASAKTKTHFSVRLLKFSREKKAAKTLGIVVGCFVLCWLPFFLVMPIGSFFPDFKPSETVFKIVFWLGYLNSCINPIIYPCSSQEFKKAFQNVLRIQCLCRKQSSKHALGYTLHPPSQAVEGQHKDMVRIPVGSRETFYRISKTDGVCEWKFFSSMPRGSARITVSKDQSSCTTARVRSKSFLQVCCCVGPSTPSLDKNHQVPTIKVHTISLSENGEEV
It counts as functional, cell-based.

The target in assay [2] is T1, Alpha-1A adrenergic receptor. The assay is classed as functional, cell-based. This is another data set of the same source.
In assay [3] the target is T2, Gastrin/cholecystokinin type B receptor (Homo sapiens, UniProt P32239).
T2 sequence (P32239 whole entry): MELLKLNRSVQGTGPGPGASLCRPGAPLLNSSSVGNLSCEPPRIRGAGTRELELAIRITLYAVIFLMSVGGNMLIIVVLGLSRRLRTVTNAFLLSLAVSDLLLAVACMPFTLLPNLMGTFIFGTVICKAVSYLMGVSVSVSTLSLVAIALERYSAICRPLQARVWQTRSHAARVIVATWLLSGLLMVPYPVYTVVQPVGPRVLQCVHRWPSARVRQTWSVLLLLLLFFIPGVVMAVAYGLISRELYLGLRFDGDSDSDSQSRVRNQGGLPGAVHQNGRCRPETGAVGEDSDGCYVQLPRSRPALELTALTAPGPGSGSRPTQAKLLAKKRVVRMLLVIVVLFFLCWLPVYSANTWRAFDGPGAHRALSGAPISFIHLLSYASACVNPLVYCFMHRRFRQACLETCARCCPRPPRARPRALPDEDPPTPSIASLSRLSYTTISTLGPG

Assay [4] addresses Glutamate receptor ionotropic, NMDA 1 (Rattus norvegicus, UniProt P35439).
The target of a further assay is Motilin receptor (Homo sapiens, UniProt O43193).
Assay [5] deals with 3',5'-cyclic-AMP phosphodiesterase 4D (Homo sapiens, UniProt Q08499). The assay is classed as functional.
For the next assay, the target named is D(3) dopamine receptor (Homo sapiens, UniProt P35462).
In assay [6] the target is Gamma-aminobutyric acid receptor subunit alpha-1 (Rattus norvegicus, UniProt P62813).
For assay [7], the target named is T3, Neuropeptide Y receptor type 1 (Homo sapiens, UniProt P25929).
T3 sequence (P25929 whole entry): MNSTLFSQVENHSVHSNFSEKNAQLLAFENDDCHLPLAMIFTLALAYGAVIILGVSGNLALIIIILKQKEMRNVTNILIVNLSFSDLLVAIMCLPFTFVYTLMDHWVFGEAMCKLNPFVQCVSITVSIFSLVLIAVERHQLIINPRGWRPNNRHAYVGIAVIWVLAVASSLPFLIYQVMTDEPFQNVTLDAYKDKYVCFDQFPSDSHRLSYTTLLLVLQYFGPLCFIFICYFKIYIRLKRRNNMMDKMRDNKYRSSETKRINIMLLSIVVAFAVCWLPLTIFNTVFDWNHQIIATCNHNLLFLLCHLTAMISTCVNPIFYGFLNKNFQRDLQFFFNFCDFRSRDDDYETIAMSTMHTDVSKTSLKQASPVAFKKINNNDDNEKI

The target of a further assay is Cannabinoid receptor 1 (Homo sapiens, UniProt P21554). It counts as functional, cell-based.
Assay [8] addresses T4, Amine oxidase [flavin-containing] A (Homo sapiens, UniProt P21397).
T4 sequence (P21397 whole entry): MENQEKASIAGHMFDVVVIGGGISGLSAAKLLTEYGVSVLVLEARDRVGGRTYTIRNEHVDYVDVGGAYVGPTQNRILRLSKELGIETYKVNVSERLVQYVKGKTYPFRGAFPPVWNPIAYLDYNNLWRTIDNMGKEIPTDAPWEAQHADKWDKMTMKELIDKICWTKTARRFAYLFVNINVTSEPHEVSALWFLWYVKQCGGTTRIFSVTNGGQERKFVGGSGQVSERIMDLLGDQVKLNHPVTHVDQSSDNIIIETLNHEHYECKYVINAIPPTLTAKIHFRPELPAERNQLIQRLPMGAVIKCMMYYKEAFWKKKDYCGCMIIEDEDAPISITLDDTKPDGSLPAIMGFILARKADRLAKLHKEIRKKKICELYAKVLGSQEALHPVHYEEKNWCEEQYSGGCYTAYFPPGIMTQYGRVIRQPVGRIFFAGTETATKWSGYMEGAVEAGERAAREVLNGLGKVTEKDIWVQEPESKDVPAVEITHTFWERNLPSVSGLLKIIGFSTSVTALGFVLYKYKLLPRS
The assay is classed as functional.

By AC50 is commonly meant the concentration giving half of the maximal activity seen. Higher therefore signals activity only at high concentration.
Also: assay procedure not described here.

Sequence of D(3) dopamine receptor (P35462 whole entry): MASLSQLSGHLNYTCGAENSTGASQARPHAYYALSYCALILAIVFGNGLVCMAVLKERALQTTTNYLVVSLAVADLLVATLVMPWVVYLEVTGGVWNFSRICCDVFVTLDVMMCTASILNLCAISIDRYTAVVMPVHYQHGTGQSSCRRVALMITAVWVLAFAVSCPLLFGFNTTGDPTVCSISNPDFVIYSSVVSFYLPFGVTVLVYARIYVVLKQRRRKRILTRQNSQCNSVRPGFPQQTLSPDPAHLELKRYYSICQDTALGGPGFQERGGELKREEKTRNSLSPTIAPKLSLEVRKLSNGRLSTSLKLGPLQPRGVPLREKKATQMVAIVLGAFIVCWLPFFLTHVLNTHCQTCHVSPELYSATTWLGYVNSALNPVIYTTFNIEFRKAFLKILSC
Sequence of Gamma-aminobutyric acid receptor subunit alpha-1 (P62813 whole entry): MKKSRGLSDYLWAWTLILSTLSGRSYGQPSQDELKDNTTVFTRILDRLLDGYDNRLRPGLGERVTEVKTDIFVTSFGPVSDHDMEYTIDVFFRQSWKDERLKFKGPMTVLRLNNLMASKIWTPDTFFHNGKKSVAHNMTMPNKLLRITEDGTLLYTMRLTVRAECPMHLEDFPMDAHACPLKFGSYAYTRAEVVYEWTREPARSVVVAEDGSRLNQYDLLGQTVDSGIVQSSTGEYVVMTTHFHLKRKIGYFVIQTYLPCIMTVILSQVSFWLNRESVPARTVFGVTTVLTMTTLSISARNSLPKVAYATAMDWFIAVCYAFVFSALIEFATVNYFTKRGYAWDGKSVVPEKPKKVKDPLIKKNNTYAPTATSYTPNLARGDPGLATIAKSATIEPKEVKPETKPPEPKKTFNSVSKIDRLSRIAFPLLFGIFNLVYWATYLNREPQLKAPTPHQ
Sequence of Cannabinoid receptor 1 (P21554 whole entry): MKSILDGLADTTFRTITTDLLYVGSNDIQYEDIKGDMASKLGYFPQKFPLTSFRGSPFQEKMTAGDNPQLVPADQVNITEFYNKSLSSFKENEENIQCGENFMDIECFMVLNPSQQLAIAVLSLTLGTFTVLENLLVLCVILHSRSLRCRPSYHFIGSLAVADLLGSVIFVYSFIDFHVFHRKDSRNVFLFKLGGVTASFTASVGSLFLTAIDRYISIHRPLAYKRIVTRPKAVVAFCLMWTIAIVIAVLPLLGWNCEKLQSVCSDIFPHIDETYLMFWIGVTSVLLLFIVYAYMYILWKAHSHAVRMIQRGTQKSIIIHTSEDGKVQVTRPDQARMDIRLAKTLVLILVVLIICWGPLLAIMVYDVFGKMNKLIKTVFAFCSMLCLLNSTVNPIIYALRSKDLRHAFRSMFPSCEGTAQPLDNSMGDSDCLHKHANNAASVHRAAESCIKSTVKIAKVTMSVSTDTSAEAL
Sequence of Motilin receptor (O43193 whole entry): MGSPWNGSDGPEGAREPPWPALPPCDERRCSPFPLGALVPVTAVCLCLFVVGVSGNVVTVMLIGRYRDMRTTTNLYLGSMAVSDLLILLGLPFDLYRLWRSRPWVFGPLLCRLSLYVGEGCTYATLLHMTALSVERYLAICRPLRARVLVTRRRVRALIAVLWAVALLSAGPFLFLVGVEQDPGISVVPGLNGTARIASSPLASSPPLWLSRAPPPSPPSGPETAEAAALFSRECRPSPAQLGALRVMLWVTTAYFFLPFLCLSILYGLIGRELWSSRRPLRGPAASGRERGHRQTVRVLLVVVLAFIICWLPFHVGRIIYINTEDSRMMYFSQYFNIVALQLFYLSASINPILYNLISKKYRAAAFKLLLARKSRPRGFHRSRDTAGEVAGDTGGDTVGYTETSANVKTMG
Sequence of 3',5'-cyclic-AMP phosphodiesterase 4D (Q08499 whole entry): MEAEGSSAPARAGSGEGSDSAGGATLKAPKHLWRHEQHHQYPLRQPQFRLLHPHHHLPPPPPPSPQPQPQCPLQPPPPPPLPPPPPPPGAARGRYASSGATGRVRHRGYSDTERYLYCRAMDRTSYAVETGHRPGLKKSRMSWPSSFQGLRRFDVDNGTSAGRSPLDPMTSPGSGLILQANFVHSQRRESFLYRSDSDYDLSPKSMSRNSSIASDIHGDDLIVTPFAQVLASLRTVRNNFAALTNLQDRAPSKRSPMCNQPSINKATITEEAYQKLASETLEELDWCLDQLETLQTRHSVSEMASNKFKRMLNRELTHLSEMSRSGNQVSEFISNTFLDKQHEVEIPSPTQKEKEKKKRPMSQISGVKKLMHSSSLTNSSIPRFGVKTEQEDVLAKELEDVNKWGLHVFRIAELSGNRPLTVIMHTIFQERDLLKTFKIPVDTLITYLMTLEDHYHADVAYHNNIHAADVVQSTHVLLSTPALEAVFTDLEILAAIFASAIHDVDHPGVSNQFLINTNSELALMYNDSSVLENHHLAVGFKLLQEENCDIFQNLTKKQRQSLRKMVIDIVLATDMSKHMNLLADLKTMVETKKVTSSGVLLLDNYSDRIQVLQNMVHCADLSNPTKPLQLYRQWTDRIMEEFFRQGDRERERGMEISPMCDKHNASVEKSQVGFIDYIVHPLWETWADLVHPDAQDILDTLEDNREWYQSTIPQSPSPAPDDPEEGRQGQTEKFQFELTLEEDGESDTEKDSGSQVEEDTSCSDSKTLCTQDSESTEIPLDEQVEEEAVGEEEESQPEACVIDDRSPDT

For the compound `O=C(Nc1cccc2c(=O)cc(-c3nnn[nH]3)oc12)c1ccc(OCCCCc2ccccc2)cc1`, the AC50 in [1] was more than 30 µM.
Still for that read-out and setting: with `CC(C)(N)C(=O)N[C@H](Cc1c[nH]c2ccccc12)C(=O)N[C@H](Cc1c[nH]c2ccccc12)NC=O` [MACIMORELIN] the figure was more than 30 µM.
Turning to `CC(C)N(CCCCOCC(=O)NS(C)(=O)=O)c1cnc(-c2ccccc2)c(-c2ccccc2)n1` [SELEXIPAG], the AC50 in assay [2] was more than 30 µM; in assay [3], more than 10 µM; in assay [4], more than 30 µM; at Motilin receptor it was more than 30 µM; in assay [5], 4.81 µM; on D(3) dopamine receptor, more than 30 µM. The concentration at half-maximal activity (AC50) in [6] is more than 30 µM; in assay [7], more than 30 µM; at Cannabinoid receptor 1, 28 µM; in assay [8], more than 30 µM.
As to `CC(=O)S[C@@H]1CC2=CC(=O)CC[C@]2(C)[C@H]2CC[C@@]3(C)[C@@H](CC[C@@]34CCC(=O)O4)[C@H]12` [SPIRONOLACTONE], the concentration at half-maximal activity (AC50) in [2] was more than 30 µM; in assay [3], more than 30 µM; in assay [4] it was more than 10 µM; at Motilin receptor it was more than 30 µM; in [5], more than 30 µM; on D(3) dopamine receptor, more than 30 µM. Further, the concentration at half-maximal activity (AC50) in assay [6] is more than 10 µM; in assay [7], more than 30 µM; at Cannabinoid receptor 1, more than 30 µM; in assay [8], more than 30 µM.
Take `CCCCNc1ccc(C(=O)OCCN(C)C)cc1` [TETRACAINE]: the half-maximal activity concentration (AC50) is more than 30 µM in assay [2]; more than 30 µM in assay [3]; more than 10 µM in assay [4]; more than 10 µM on Motilin receptor; more than 30 µM in assay [5]; 22 µM at D(3) dopamine receptor. Moreover, the AC50 in [1] is more than 30 µM; in [6], more than 10 µM; in assay [7] it was more than 30 µM; on Cannabinoid receptor 1, more than 30 µM; in assay [8], 0.97 µM.
As to `Cn1c(=O)c2[nH]cnc2n(C)c1=O` [THEOPHYLLINE], the AC50 in assay [2] was more than 30 µM; in assay [3] it was more than 30 µM; in assay [4], more than 10 µM; at Motilin receptor, more than 10 µM; at D(3) dopamine receptor it was more than 30 µM; in assay [1], more than 10 µM. The concentration at half-maximal activity (AC50) in [6] was more than 10 µM; in [7], more than 30 µM; on Cannabinoid receptor 1, more than 30 µM; in [8], more than 10 µM.
Take `CC1(C)O[C@@H]2[C@@H](CO[C@@]3(COS(N)(=O)=O)OC(C)(C)O[C@@H]23)O1` [TOPIRAMATE]: the AC50 in assay [3] is more than 30 µM; in assay [4], more than 10 µM; on Motilin receptor, more than 10 µM; in [5], more than 30 µM; on D(3) dopamine receptor it was more than 10 µM; in assay [1] it was more than 30 µM. In addition, the AC50 in [6] was more than 10 µM; in assay [7], more than 30 µM; on Cannabinoid receptor 1, more than 30 µM; in assay [8], more than 10 µM.
As to `Cc1cc(CC(=O)O)n(C)c1C(=O)c1ccc(Cl)cc1` [ZOMEPIRAC], the half-maximal activity concentration (AC50) (in [2]; in assay [3]; in assay [4]; on Motilin receptor; in assay [5]; at D(3) dopamine receptor) was more than 30 µM in each case. The concentration at half-maximal activity (AC50) is more than 30 µM in assay [6], more than 30 µM in assay [7], more than 10 µM on Cannabinoid receptor 1 and more than 30 µM in assay [8].

Values taken from ChEMBL document CHEMBL5291721, “A preclinical secondary pharmacology resource illuminates target-adverse drug reaction associations of marketed drugs” (Nat Commun, 2023).
